Experimental data as given in patent US10793563B2, “GCN2 inhibitors and uses thereof” (Merck Patent GmbH, priority 2018, dated 2020).
pIC50, pKi: −log10 of the molar value.

Legend:
GCN2 kinase = GCN2 kinase (Homo sapiens (Human), UniProt Q9P2K8); assay: GCN2 Enzyme Inhibition Assay (Transcreener ADP2 fluorescence polarization); type: biochemical; conditions: 280 μM ATP, 200 μM (RS)7 peptide, 4 nM GCN2, 25° C.; for pKi: Ki(app)
Procedure, shortened: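 At 25 °C, GCN2 kinase (typical final concentration 4 nM) and (RS)7 peptide in Tris-HCl pH 7.5 buffer with MgCl2, NaCl and DTT were preincubated with compound for 10 min, then ATP was added for a 1 h reaction. ADP was read by FP with antibody/Alexa633 tracer. Non-linear tight-binding analysis gave IC50 and apparent Ki.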

[1] = molecular target: intracellular GCN2 (phosphorylation of the GCN2 substrate eIF2α) (Homo sapiens (Human), UniProt Q9P2K8); assay: GCN2 Cellular Inhibition Assay (AlphaScreen SureFire P-eIF2α Ser51, borrelidin-treated U2OS cells); type: cell-based; conditions: 10 μM borrelidin, 1 h, phosphorylated eIF2α Ser51, read-out: GCN2 Biomarker (IC50)
Procedure, shortened: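 Phospho-eIF2α (Ser51) measured by AlphaScreen SureFire in lysates of U2OS cells stimulated 1 h at 37 °C with 10 μM borrelidin alongside compound, 4-fold dilutions from 40 μM. Inhibition expressed as percent relative to borrelidin-alone controls.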

GCN2 kinase, sequence (Q9P2K8 whole entry): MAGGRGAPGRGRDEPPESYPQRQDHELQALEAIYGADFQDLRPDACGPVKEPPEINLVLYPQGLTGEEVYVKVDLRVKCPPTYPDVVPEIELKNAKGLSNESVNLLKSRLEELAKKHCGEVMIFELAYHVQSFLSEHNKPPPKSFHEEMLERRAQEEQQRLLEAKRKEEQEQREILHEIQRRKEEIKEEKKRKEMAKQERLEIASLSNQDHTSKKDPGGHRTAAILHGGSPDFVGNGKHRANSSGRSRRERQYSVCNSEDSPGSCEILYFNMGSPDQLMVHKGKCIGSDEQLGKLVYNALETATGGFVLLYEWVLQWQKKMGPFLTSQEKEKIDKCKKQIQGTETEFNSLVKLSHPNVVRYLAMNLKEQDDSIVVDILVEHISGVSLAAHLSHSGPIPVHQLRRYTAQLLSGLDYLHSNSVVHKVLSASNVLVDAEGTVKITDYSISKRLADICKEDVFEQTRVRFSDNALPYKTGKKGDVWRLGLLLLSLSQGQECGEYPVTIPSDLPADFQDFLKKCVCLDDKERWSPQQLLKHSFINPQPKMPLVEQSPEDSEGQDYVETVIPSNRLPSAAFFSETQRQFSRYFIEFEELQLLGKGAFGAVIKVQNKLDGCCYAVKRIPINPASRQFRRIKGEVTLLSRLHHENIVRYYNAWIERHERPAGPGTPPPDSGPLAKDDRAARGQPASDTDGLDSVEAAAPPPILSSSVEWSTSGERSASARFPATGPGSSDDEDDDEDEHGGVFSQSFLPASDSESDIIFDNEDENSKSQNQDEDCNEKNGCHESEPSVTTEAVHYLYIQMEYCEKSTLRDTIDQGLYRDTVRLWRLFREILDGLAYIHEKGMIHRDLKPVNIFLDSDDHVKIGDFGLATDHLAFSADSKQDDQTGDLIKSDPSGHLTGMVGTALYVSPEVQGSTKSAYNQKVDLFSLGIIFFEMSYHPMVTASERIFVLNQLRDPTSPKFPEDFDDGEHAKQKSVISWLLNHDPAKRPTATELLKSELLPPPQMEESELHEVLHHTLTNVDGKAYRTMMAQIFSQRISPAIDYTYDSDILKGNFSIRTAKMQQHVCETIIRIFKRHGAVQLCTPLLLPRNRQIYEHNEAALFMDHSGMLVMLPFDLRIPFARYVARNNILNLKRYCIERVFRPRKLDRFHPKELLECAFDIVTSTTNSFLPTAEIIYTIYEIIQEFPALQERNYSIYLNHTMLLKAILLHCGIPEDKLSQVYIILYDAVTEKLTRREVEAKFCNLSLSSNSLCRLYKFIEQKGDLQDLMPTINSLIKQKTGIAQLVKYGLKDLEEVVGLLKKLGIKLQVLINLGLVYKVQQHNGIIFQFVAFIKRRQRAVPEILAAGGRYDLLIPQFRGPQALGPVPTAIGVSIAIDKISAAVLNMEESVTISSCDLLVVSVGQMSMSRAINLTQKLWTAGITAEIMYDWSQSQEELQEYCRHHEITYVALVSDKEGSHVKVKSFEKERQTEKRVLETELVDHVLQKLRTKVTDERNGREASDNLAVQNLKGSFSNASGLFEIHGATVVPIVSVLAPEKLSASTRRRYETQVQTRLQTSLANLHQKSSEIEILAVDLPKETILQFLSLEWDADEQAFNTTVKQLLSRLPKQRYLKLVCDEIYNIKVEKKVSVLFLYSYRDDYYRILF
intracellular GCN2 (phosphorylation of the GCN2 substrate eIF2α), sequence (Q9P2K8 whole entry): as above

Work on `NC(=O)C1CN(c2ccnc(-c3cnc4ccc(C(F)(F)F)cn34)n2)CCN1` (stereo not shown) [I-217, 4-(2-(6-(trifluoromethyl)imidazo[1,2-a]pyridin-3-yl)pyrimidin-4-yl)piperazine-2-carboxamide] yielded a pIC50 (GCN2 kinase) of 7.00 to 8.00 and a pIC50 [1] of 5.30 to 6.30.

`Fc1ccc(CN2CCN(c3ccnc(-c4cnc5ccc(C(F)(F)F)cn45)n3)CC2c2cn[nH]c2)cc1F` (stereo not shown) [I-450, 3-(4-(4-(3,4-difluorobenzyl)-3-(1H-pyrazol-4-yl)piperazin-1-yl)pyrimidin-2-yl)-6-(trifluoromethyl)imidazo[1,2-a]pyridine] was tested, and the pIC50 (GCN2 kinase) was 7.00 to 8.00 and the pIC50 [1] was > 6.30.

For `c1ccc(Oc2ccc3ncc(-c4nccc(N5CCC[C@@H](c6cn[nH]c6)C5)n4)n3c2)cc1` [I-399], the pIC50 (GCN2 kinase) was 7.00 to 8.00 and the pIC50 [1] was 5.30 to 6.30.

In the case of `Cc1[nH]ncc1[C@H]1CN(c2ccnc(-c3cnc4ccc(C(F)(F)F)cn34)n2)C[C@H](C)O1` [I-147, (2 S,6 S)-2-methyl-6-(5-methyl-1H-pyrazol-4-yl)-4-(2-(6-(trifluoromethyl)imidazo[1,2-a]pyridin-3-yl)pyrimidin-4-yl)morpholine], the pIC50 (GCN2 kinase) was 7.00 to 8.00 and the pIC50 [1] was > 6.30.

With `C[C@@H]1C[C@@H](c2cn[nH]c2)CN(c2nccc(-c3cnc4ccc(N5CC(F)(F)C5)cn34)n2)C1` [I-261, 6-(3,3-difluoroazetidin-1-yl)-3-(2-((3R,5S)-3-methyl-5-(1H-pyrazol-4-yl)piperidin-1-yl)pyrimidin-4-yl)imidazo[1,2-a]pyridine] the pIC50 (GCN2 kinase) was > 8.00 and the pIC50 [1] was > 6.30.

Work on `NC(=O)[C@H]1CN(c2ccnc(-c3cnc4ccc(Cl)cn34)n2)CCN1C1CC1` [I-349, (R)-4-(2-(6-chloroimidazo[1,2-a]pyridin-3-yl)pyrimidin-4-yl)-1-cyclopropylpiperazine-2-carboxamide] yielded a pIC50 (GCN2 kinase) of 7.00 to 8.00 and a pIC50 [1] of 5.30 to 6.30.

Compound `C[C@@H]1[C@H](CNS(C)(=O)=O)N(C2CC2)[C@H](C)CN1c1ccnc(-c2cnc3ccc(C(F)(F)F)cn23)n1` (stereo in doubt) [I-494, N-(((2S,3R,6R)-1-cyclopropyl-3,6-dimethyl-4-(2-(6-(trifluoromethyl)imidazo[1,2-a]pyridin-3-yl)pyrimidin-4-yl)piperazin-2-yl)methyl)methanesulfonamide] has a pIC50 (GCN2 kinase) of 6.00 to 7.00 and a pIC50 [1] of 5.30 to 6.30.

`OC1CC(N2CCN(c3ccnc(-c4cnc5ccc(C(F)(F)F)cn45)n3)CC2c2cn[nH]c2)C1` (stereo not shown) [I-383, 3-(2-(1H-pyrazol-4-yl)-4-(2-(6-(trifluoromethyl)imidazo[1,2-a]pyridin-3-yl)pyrimidin-4-yl)piperazin-1-yl)cyclobutan-1-ol] was tested, and the pIC50 (GCN2 kinase) was > 8.00 and the pIC50 [1] was 5.30 to 6.30.

`CC(=O)N1C(C)CN(c2ccnc(-c3cnc4ccc(Cl)cn34)n2)CC1c1cn[nH]c1` (stereo not shown) [I-277, 1-(4-(2-(6-chloroimidazo[1,2-a]pyridin-3-yl)pyrimidin-4-yl)-2-methyl-6-(1H-pyrazol-4-yl)piperazin-1-yl)ethan-1-one] was tested, and the pIC50 (GCN2 kinase) was 7.00 to 8.00 and the pIC50 [1] was 5.30 to 6.30.

In the case of `Cc1cc(-c2cnc3ccc(N4CC(F)(F)C4)cn23)nc(N2C[C@@H](C)C[C@H](c3cn[nH]c3)C2)n1` [I-287, 6-(3,3-difluoroazetidin-1-yl)-3-(6-methyl-2-((3 S, 5R)-3-methyl-5-(1H-pyrazol-4-yl)piperidin-1-yl)pyrimidin-4-yl)imidazo[1,2-a]pyridine], the pIC50 (GCN2 kinase) was 7.00 to 8.00 and the pIC50 [1] was > 6.30.

With `CC(=O)N1CCN(c2ccnc(-c3cnc4ccc(C(F)F)cn34)n2)CC1` [I-14, 1-[4-[2-[6-(Difluoromethyl)imidazo[1,2-a]pyridin-3-yl]pyrimidin-4-yl]piperazin-1-yl]ethanone] the pKi (GCN2 kinase) was 7.00 to 8.00 and the pIC50 [1] was 5.30 to 6.30.

In the case of `O=C(c1cn[nH]n1)N1CCN(c2ccnc(-c3cnc4ccc(C(F)(F)F)cn34)n2)CC1c1cn[nH]c1` (stereo not shown) [I-442, (2-(1H-pyrazol-4-yl)-4-(2-(6-(trifluoromethyl)imidazo[1,2-a]pyridin-3-yl)pyrimidin-4-yl)piperazin-1-yl)(2H-1,2,3-triazol-4-yl)methanone], the pIC50 (GCN2 kinase) was 7.00 to 8.00 and the pIC50 [1] was 5.30 to 6.30.

In the case of `Cc1oncc1[C@@H]1CN(c2ccnc(-c3cnc4ccc(C(F)(F)F)cn34)n2)C[C@H](C)O1` [I-346, (2S,6R)-2-methyl-6-(5-methylisoxazol-4-yl)-4-(2-(6-(trifluoromethyl)imidazo[1,2-a]pyridin-3-yl)pyrimidin-4-yl)morpholine], the pIC50 (GCN2 kinase) was 7.00 to 8.00 and the pIC50 [1] was > 6.30.

`Fc1cc2ncc(-c3nccc(N4CCOC(c5ccccn5)C4)n3)n2cc1Cl` (stereo not shown) [I-88, 6-Chloro-7-fluoro-3-[4-(2-pyridin-2-yl-morpholin-4-yl)-pyrimidin-2-yl]-imidazo[1,2-a]pyridine] was tested, and the pKi (GCN2 kinase) was 6.00 to 7.00 and the pIC50 [1] was > 6.30.

Compound `Cc1[nH]ncc1[C@@H]1CN(c2ccnc(-c3cnc4cc(F)c(Cl)cn34)n2)C[C@@H](C)O1` [I-538, (2R,6R)-4-(2-(6-chloro-7-fluoroimidazo[1,2-a]pyridin-3-yl)pyrimidin-4-yl)-2-methyl-6-(5-methyl-1H-pyrazol-4-yl)morpholine] has a pIC50 (GCN2 kinase) of 7.00 to 8.00 and a pIC50 [1] of 5.30 to 6.30.

`FC(F)(F)c1ccc2ncc(-c3nc(N4CCOC(c5cn[nH]c5)C4)ns3)n2c1` (stereo not shown) [I-108, 2-(1H-pyrazol-4-yl)-4-(5-(6-(trifluoromethyl)imidazo[1,2-a]pyridin-3-yl)-1,2,4-thiadiazol-3-yl)morpholine] was tested, and the pKi (GCN2 kinase) was > 8.00 and the pIC50 [1] was > 6.30.

`CC1(C)CN(c2ccnc(-c3cnc4ccc(C(F)(F)F)cn34)n2)CC2(CNC2)O1` [I-294, 6,6-dimethyl-8-(2-(6-(trifluoromethyl)imidazo[1,2-a]pyridin-3-yl)pyrimidin-4-yl)-5-oxa-2,8-diazaspiro[3.5]nonane] was tested, and the pIC50 (GCN2 kinase) was 6.00 to 7.00 and the pIC50 [1] was < 5.30.

`C[C@@H]1CN(c2nccc(-c3cnc4ccc(Cl)cn34)n2)C[C@@H](c2cn[nH]c2)O1` [I-251, (2R,6R)-4-(4-(6-chloroimidazo[1,2-a]pyridin-3-yl)pyrimidin-2-yl)-2-methyl-6-(1H-pyrazol-4-yl)morpholine] was tested, and the pIC50 (GCN2 kinase) was 7.00 to 8.00 and the pIC50 [1] was 5.30 to 6.30.

In the case of `C[C@H]1CN(c2nc(-c3cnc4ccc(C(F)F)cn34)ns2)C[C@@H](CNS(C)(=O)=O)C1(F)F` [I-103, N-(((3S,5S)-1-(3-(6-(difluoromethyl)imidazo[1,2-a]pyridin-3-yl)-1,2,4-thiadiazol-5-yl)-4,4-difluoro-5-methylpiperidin-3-yl)methyl)methanesulfonamide], the pKi (GCN2 kinase) was > 8.00 and the pIC50 [1] was > 6.30.

In the case of `O[C@@H]1C[C@H](O)CN(c2ccnc(-c3cnc4ccc(C(F)(F)F)cn34)n2)C1` [I-238, (3R,5S)-1-(2-(6-(trifluoromethyl)imidazo[1,2-a]pyridin-3-yl)pyrimidin-4-yl)piperidine-3,5-diol], the pIC50 (GCN2 kinase) was 7.00 to 8.00 and the pIC50 [1] was 5.30 to 6.30.

In the case of `FC(F)(F)c1ccc2ncc(-c3nccc(N4CCN(CC5CC5)C(c5cn[nH]c5)C4)n3)n2c1` (stereo not shown) [I-369, 4-[4-(cyclopropylmethyl)-3-(1H-pyrazol-4-yl)piperazin-1-yl]-2-[6-(trifluoromethyl)imidazo[1,2-a]pyridin-3-yl]pyrimidine], the pIC50 (GCN2 kinase) was > 8.00 and the pIC50 [1] was > 6.30.

In the case of `C[C@@H]1C[C@H](N=S(C)(C)=O)CN(c2ccnc(-c3cnc4ccc(C(F)F)cn34)n2)C1` [I-340, (((3 S, 5R)-1-(2-(6-(difluoromethyl)imidazo[1,2-a]pyridin-3-yl)pyrimidin-4-yl)-5-methylpiperidin-3-yl)imino)dimethyl-λ6-sulfanone], the pIC50 (GCN2 kinase) was > 8.00 and the pIC50 [1] was > 6.30.

In the case of `Cc1cnc(N2C[C@H](C)C[C@@H](c3cn[nH]c3)C2)nc1-c1cnc2ccc(Cl)cn12` (stereo in doubt) [I-184, 6-chloro-3-(5-methyl-2-((3R,5S)-3-methyl-5-(1H-pyrazol-4-yl)piperidin-1-yl)pyrimidin-4-yl)imidazo[1,2-a]pyridine], the pIC50 (GCN2 kinase) was 7.00 to 8.00 and the pIC50 [1] was > 6.30.

With `C[C@H]1C[C@H](c2cn[nH]c2)CN(c2nccc(-c3cnc4ccc(Cl)cn34)n2)C1` (stereo in doubt) [I-198, 6-chloro-3-(2-((3S,5R)-3-methyl-5-(1H-pyrazol-4-yl)piperidin-1-yl)pyrimidin-4-yl)imidazo[1,2-a]pyridine] the pIC50 (GCN2 kinase) was > 8.00 and the pIC50 [1] was 5.30 to 6.30.

`Cc1noc([C@H]2CN(c3ccnc(-c4cnc5ccc(C#N)cn45)n3)C[C@@H](C)O2)n1` [I-92, 3-{4-[(2R,6R)-2-methyl-6-(3-methyl-1,2,4-oxadiazol-5-yl)morpholin-4-yl]pyrimidin-2-yl}imidazo[1,2-a]pyridine-6-carbonitrile] was tested, and the pKi (GCN2 kinase) was > 8.00 and the pIC50 [1] was 5.30 to 6.30.

Work on `O=C(C1CC1(F)F)N1CCN(c2ccnc(-c3cnc4ccc(C(F)(F)F)cn34)n2)CC1c1cn[nH]c1` (stereo not shown) [I-400, (2-(1H-pyrazol-4-yl)-4-(2-(6-(trifluoromethyl)imidazo[1,2-a]pyridin-3-yl)pyrimidin-4-yl)piperazin-1-yl)(2,2-difluorocyclopropyl)methanone] yielded a pIC50 (GCN2 kinase) of 7.00 to 8.00 and a pIC50 [1] of 5.30 to 6.30.

`FC(F)(F)c1ccc2ncc(-c3cccc(N4CCOC(c5cn[nH]c5)C4)n3)n2c1` (stereo not shown) [I-12, 2-(1H-Pyrazol-4-yl)-4-[6-[6-(trifluoromethyl)imidazo[1,2-a]pyridin-3-yl]-2-pyridyl]morpholine] was tested, and the pKi (GCN2 kinase) was > 8.00 and the pIC50 [1] was > 6.30.

`O=C1NC[C@@]12CCCN(c1ccnc(-c3cnc4ccc(C(F)(F)F)cn34)n1)C2` [I-295, (R)-6-(2-(6-(trifluoromethyl)imidazo[1,2-a]pyridin-3-yl)pyrimidin-4-yl)-2,6-diazaspiro[3.5]nonan-1-one] was tested, and the pIC50 (GCN2 kinase) was 7.00 to 8.00 and the pIC50 [1] was 5.30 to 6.30.

With `Clc1ccc2ncc(-c3nccc(N4CCNC(c5cn[nH]c5)C4)n3)n2c1` (stereo not shown) [I-28, 6-Chloro-3-[4-[3-(1H-pyrazol-4-yl)piperazin-1-yl]pyrimidin-2-yl]imidazo[1,2-a]pyridine] the pKi (GCN2 kinase) was > 8.00 and the pIC50 [1] was 5.30 to 6.30.
